# In US20240002361A1, “COMPOSITIONS AND METHODS FOR BLOCKING NEUROPILIN RECEPTOR 1 FOR THE TREATMENT OF PAIN AND PREVENTION OF VIRAL ENTRY” (Arizona Board of Regents on Behalf of the University of …, priority 2020, published 2024):
# What was measured:
# pY1175 VEGFR2 = test: In cell Western for detecting inhibition of VEGFR2 activation by VEGF-A165; type: cell-based, mouse; conditions: CAD cells, absence of stimulation by VEGF-A
# SNI rats = test: Spared nerve injury (SNI)-induced mechanical allodynia, paw withdrawal threshold; type: in vivo, rats (Sprague Dawley, male); conditions: day 21 after surgery, 2.14 mg/5 ml intrathecally, n=5
# Procedure: FIG. 8 is a line graph showing antagonism of NRP-1/VEGF-A signaling using compound 4. […] SNI elicited mechanical allodynia 21 days after surgery. Paw withdrawal thresholds for SNI rats (Sprague Dawley, male) administered saline (vehicle) or NRP-1 inhibitor (2.14 mg/5 ml) intrathecally (i.t.); n=5). P values, versus control, are indicated. Data are shown as mean±s.e.m. and were analyzed by non-parametric two-way analysis of variance where time was the within subject factor and treatment was the between subject factor (post hoc: Sidak). The experiments were analyzed by an investigator blinded to the treatment. […]
# The assessment of tactile allodynia (i.e., a decreased threshold for paw withdrawal after probing with normally innocuous mechanical stimuli) involved testing the withdrawal threshold of the paw in response to probing with a series of calibrated fine (von Frey) filaments. […] The withdrawal threshold was determined by sequentially increasing and decreasing the stimulus strength (the ‘up and down’ method, and the data analyzed using the nonparametric method of Dixon (as described by Chaplan and Bach, J. Neurosci. Meth. 1994, 53, 55-63) with results expressed as the mean withdrawal threshold. The withdrawal threshold is a level that is statistically significant. Typically, greater than 50% deviation from the baseline could be allodynic.
# NRP-1/VEGF-A interaction [1] = target: T1, NRP-1/VEGF-A interaction (Homo sapiens, UniProt O14786); test: ELISA-based NRP1-VEGF-A165 protein binding assay (single concentration); conditions: compounds 12.5 μM (Spike S1 100 nM), biotinylated VEGF-A165 10 nM; ± standard error of the mean, n = 11
# T1 construct: coated with the extracellular domain of human NRP-1 (containing the a1a2 and the b1b2 regions); purchased Fisher, Hampton, NH 50-101-8343
# T1 sequence (O14786 22-856 limits assumed): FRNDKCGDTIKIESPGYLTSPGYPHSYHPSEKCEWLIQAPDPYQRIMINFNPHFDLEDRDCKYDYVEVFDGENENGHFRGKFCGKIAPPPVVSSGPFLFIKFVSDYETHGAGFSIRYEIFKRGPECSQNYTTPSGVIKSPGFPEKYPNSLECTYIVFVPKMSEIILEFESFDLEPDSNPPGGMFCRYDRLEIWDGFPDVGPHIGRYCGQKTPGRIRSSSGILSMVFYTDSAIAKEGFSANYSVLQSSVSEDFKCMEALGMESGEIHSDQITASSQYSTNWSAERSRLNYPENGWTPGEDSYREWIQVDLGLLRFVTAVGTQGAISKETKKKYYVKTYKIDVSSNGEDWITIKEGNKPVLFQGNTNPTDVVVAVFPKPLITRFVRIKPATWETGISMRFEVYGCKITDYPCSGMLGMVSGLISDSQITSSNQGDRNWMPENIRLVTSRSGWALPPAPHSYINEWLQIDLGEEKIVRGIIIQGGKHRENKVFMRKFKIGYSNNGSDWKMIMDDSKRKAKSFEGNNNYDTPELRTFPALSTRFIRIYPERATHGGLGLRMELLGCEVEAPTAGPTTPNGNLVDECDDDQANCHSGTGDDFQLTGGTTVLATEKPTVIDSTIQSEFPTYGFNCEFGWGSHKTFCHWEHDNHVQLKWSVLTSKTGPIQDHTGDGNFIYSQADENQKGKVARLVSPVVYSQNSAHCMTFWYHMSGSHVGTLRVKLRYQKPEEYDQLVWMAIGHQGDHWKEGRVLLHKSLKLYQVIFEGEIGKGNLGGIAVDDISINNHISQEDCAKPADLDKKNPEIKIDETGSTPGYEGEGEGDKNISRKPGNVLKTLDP
# NRP-1/VEGF-A interaction [2] = target: T1, NRP-1/VEGF-A interaction; test: ELISA-based NRP1-VEGF-A165 protein binding assay (concentration-response, IC50); conditions: 20 nM biotinylated hVEGF-A165 with 4 μg/ml heparin, n=3, read-out: Calculated IC50 values of inhibiting the NRP-1/VEGF-A interaction
# Procedure: Plates (96-well, Nunc Maxisorp; Thermo Fisher Scientific, Waltham, MA, USA) were coated with human Neuropilin-1-Fc (200 ng per well, Cat #50-101-8343, Fisher, Hampton, NH) and incubated at 4° C. overnight. The following day, the plates were washed and blocked with 3% BSA in PBS to minimize non-specific adsorptive binding to the plates. EG00229 (Cat #6986, Tocris) or the indicated compounds were added at different concentrations and incubated for 30 min at room temperature prior to adding biotinylated human VEGF-A165 (Cat #BT10543-025, R&D systems) at 20 nM with 4 μg/ml of heparin. As a negative control, some wells received PBS containing 3% BSA and as a positive control only hVEGF-A165 was used. The plates were incubated at room temperature with shaking for 2 h. Next, the plates were washed with PBS 0.05% Tween to eliminate unbound protein. Bound biotinylated VEGF was detected by streptavidin-HRP (Cat #016-030-084, Jackson immunoResearch). Tetramethylbenzidine (Cat #DY999, R&D Systems, St. Louis, MO) was used as the colorimetric substrate. The optical density of each well was determined immediately, using a microplate reader (Multiskan Ascent; Thermo Fisher Scientific) set to 450 nm with a correction wavelength of 570 nm. Percentage of inhibition was calculated by the following formula: […]
# where S is the optical density measured in the wells with the compounds, N is the optical density measured in the negative control wells and P is the optical density in the positive control wells. The IC50 was calculated using a non-linear regression function with GraphPad Prism Version 9. The data are presented as log (inhibitor) [M] versus normalized response-variable slope. Data are the means±S.E.M. of three independent experiments.
# Finally, the ability of the compounds to interfere with the NRP-1NEGF-A interaction was evaluated using an enzyme linked immunosorbent assay (ELISA), as previously described (Moutal, et al., Pain 2021, 12(1), 243-252). Plates were coated with the extracellular domain of human NRP-1 (containing the a1a2 and the b1b2 regions) and the compounds were added to disrupt the NRP-1NEGF-A interaction. The biotinylated human VEGF-A used in the experiments described above (Moutal, et al., Pain 2021, 12(1), 243-252) was discontinued. For the instant studies, biotinylated hVEGF-A (Cat #BT10543-025, R&D systems) was used. Because of that, the known NRP-1 antagonist EG00229 and compound 4 from the above series of inhibitors (Moutal, et al., Pain 2021, 12(1), 243-252) were also tested in the instant studies.
smiles,measurement,setting,value
Cc1nc(N2CCOCC2)ncc1-c1cc(=O)[nH]c(Nc2ccccc2)n1 [Compound 4],inhibition of basal VEGFR2 phosphorylation,pY1175 VEGFR2,showed inhibition
same,reversal of SNI-induced mechanical allodynia (paw withdrawal threshold),SNI rats,reverses spared nerve injury (SNI)-induced mechanical allodynia
same,Rel % inhibition,NRP-1/VEGF-A interaction [1],68 ± 5%
same,IC50,NRP-1/VEGF-A interaction [2],8.4 µM
